Measured values: US12358915B2, “METTL3 inhibitory compounds” (STORM THERAPEUTICS LTD., priority 2019, dated 2025)
pIC50: −log10 of the molar value.
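Further: recombinant His-tagged METTL3 with FLAG-tagged METTL14 from baculovirus, SAH product quantified by mass spectrometry against isotope-labelled internal standards, 60 min at room temperature, scaled between no-RNA and DMSO-only wells.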

What follows are molecules tested against T1, METTL3/14 (Homo sapiens, UniProt Q86U44) (assay: METTL3/14 methyltransferase assay (METTL3_14 RFMS, RapidFire mass spectrometry)). Conditions: 5 nM METTL3/14, 0.2 μM RNA substrate, 0.5 μM SAM; lower limit of the assay IC50=5 nM; Compounds 1-62; read-out: METTL3_14 RFMS IC50.
T1 construct: The enzyme used was full-length his-tagged METTL3; His; made in house
T1 sequence (Q86U44 whole entry): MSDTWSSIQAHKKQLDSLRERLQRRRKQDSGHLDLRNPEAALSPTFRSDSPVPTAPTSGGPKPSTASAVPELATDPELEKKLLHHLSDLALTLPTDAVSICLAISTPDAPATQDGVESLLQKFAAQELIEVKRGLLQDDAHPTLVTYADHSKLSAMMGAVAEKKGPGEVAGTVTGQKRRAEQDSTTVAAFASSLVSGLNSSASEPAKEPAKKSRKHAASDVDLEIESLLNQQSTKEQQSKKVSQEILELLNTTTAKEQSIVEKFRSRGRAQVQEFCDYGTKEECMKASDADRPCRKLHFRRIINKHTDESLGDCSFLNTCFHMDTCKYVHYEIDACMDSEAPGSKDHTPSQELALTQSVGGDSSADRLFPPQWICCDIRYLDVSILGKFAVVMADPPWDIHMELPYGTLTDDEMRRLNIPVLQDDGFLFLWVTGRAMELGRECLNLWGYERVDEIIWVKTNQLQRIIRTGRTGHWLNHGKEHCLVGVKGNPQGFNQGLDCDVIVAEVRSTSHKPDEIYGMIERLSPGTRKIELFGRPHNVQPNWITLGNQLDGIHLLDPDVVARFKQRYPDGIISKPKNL
T1 sequence (Q9HCE5 whole entry partner): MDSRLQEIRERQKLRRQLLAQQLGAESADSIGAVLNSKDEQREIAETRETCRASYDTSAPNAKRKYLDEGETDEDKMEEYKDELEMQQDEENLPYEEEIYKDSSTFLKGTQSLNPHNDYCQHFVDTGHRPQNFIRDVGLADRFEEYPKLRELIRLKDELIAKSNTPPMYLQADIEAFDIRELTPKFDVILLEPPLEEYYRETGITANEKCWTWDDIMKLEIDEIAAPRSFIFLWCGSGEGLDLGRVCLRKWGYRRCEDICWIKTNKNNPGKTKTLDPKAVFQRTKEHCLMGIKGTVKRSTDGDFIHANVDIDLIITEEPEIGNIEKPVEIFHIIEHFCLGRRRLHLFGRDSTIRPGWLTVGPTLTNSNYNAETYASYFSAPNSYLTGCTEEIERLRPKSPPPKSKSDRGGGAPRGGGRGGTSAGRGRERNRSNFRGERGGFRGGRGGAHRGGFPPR
Type: biochemical
Experimental: The enzyme used was full-length his-tagged METTL3 co-expressed with full length FLAG-tagged METTL14 in a baculovirus expression system. […] After termination, plates were sealed, centrifuged and stored at 4° C. until analysis. […] Mass Spectrometry Analysis RNA methyltransferase activity was measured label free using the RapidFireTM mass spectrometry (RF/MS) platform. Stopped and stable assay plates were analyzed on the Agilent RF300 integrated autosampler/solid-phase extraction (SPE) system coupled to an ABSciex 4000 mass spectrometer for the generation of the product S-adenosyl homocysteine (SAH) and normalized to the ratio of signal of the two internal product standards, respectively. Solvent A was water containing 0.1% (v/v) TCA. Solvent B was acetonitrile/0.1% ammonium acetate (8:2, v/v). More specifically, plates were centrifuged at 4350 rpm for 10 min, samples were aspirated under vacuum for 600 ms, then loaded onto a C18 solid-phase extraction cartridge and washed for 3 s with solvent A at a flow rate of 1.5 mL/min. Retained product and internal standards were eluted with solvent B at a flow rate of 1 mL/min for 3 s and finally the cartridge was reequilibrated with solvent A for 500 ms.
In the case of `NCc1ccc2nc(CNC(=O)c3cc(=O)n4ccccc4n3)cn2c1` [Compound 50, N-{[6-(aminomethyl)imidazo[1,2-a]pyridin-2-yl]methyl}-4-oxo-4H-pyrido[1,2-a]pyrimidine-2-carboxamide], the pIC50 was 6.57. For `O=C(NCc1cn2cc(C(O)c3ccccc3)ccc2n1)c1cccc2[nH]ncc12` (centres unmarked) [Compound 48, N-({6-[hydroxy(phenyl)methyl]imidazo [1,2-a]pyridin-2-yl}methyl)-1H-indazole-4-carboxamide], the pIC50 was 5.69. Molecule `Cc1ccc2nc(CNC(=O)c3cc(=O)n4ccccc4n3)cn2c1` [Compound 15, N-({6-methylimidazo[1,2-a]pyridin-2-yl}methyl)-4-oxo-4H-pyrido[1,2-a]pyrimidine-2-carboxamide] has a pIC50 of 6.27.

Same assay, conditions: 5 nM METTL3/14, 0.2 μM RNA substrate, 0.5 μM SAM; lower limit of the assay IC50=5 nM; Compounds 63-265; read-out: METTL3_14 RFMS IC50
Molecule `O=C(NCc1cn2cc(CNc3cccc(Cl)c3)ccc2n1)c1cc(=O)n2ccccc2n1` [Compound 158, N-[(6-{[(3-chlorophenyl)amino]methyl}imidazo[1,2-a]pyridin-2-yl)methyl]-4-oxo-4H-pyrido[1,2-a]pyrimidine-2-carboxamide] has a pIC50 of 5.42. For `O=C(NCc1cn2cc(CN3CCCC(F)(F)C3)ccc2n1)c1cc(=O)n2ccccc2n1` [Compound 208, N-({6-[(3,3-difluoropiperidin-1-yl)methyl]imidazo[1,2-a]pyridin-2-yl}methyl)-4-oxo-4H-pyrido [1,2-a]pyrimidine-2-carboxamide], the pIC50 was 5.24. `O=C(NCc1cn2cc(CNCC3CC34CC4)ccc2n1)c1cc(=O)n2ccccc2n1` (centres unmarked) [Compound 140] gave a pIC50 of 7.73. With `CC1(C)CCCCN1Cc1ccc2nc(CNC(=O)c3cc(=O)n4ccccc4n3)cn2c1` [Compound 194, N-({6-[(2,2-dimethylpiperidin-1-yl)methyl]imidazo[1,2-a]pyridin-2-yl}methyl)-4-oxo-4H-pyrido[1,2-a]pyrimidine-2-carboxamide] the pIC50 was 6.52. Work on `O=C(NCc1cn2cc(CNCC3CCOCC3)ccc2n1)c1cc(=O)n2ccccc2n1` [Compound 82, N-{[6-({[(oxan-4-yl)methyl]amino}methyl)imidazo[1,2-a]pyridin-2-yl]methyl}-4-oxo-4H-pyrido[1,2-a] pyrimidine-2-carboxamide] yielded a pIC50 of 6.45. Molecule `CN(CCC1CC1)Cc1ccc2nc(CNC(=O)c3cc(=O)n4ccccc4n3)cn2c1` [Compound 204, N-[(6-{[(2-cyclopropylethyl) (methyl)amino]methyl}imidazo [1,2-a]pyridin-2-yl)methyl]-4-oxo-4H-pyrido [1,2-a]pyrimidine-2-carboxamide] has a pIC50 of 7.21. In the case of `O=C(NCc1ccccc1)c1ccc2nc(CNC(=O)c3cc(=O)n4ccccc4n3)cn2c1` [Compound 68, N-benzyl-2-[({4-oxo-4H-pyrido[1,2-a]pyrimidin-2-yl}formamido)methyl]imidazo [1,2-a]pyridine-6-carboxamide], the pIC50 was 5.29. Molecule `O=C(NCc1cn2cc(CNCC3CCCCC3)ccc2n1)c1cc(Cl)cc2[nH]ncc12` [Compound 190, 6-chloro-N-[(6-{[(cyclohexylmethyl)amino]methyl}imidazo[1,2-a]pyridin-2-yl)methyl]-1H-indazole-4-carboxamide] has a pIC50 of 7.25. For `O=C(NCc1cn2cc(CN3CCC(F)CC3)ccc2n1)c1cc(=O)n2ccccc2n1` [Compound 144, N-({6-[(4-fluoropiperidin-1-yl)methyl]imidazo[1,2-a]pyridin-2-yl}methyl)-4-oxo-4H-pyrido[1,2-a]pyrimidine-2-carboxamide], the pIC50 was 7.22. `O=C(NCc1cn2cc(CNCC3(F)CCCC3)ccc2n1)c1cc(=O)n2ccccc2n1` [Compound 198, N-{[6-({[(1-fluorocyclopentyl)methyl]amino}methyl)imidazo [1,2-a]pyridin-2-yl]methyl}-4-oxo-4H-pyrido [1,2-a]pyrimidine-2-carboxamide] showed a pIC50 of 7.36. `O=C(NCc1cn2cc(CNC3CCOC3)ccc2n1)c1cc(=O)n2ccccc2n1` (centres unmarked) [Compound 122, 4-oxo-N-[(6-{[(oxolan-3-yl)amino]methyl}imidazo[1,2-a]pyridin-2-yl)methyl]-4H-pyrido[1,2-a] pyrimidine-2-carboxamide] was tested, and the pIC50 was 6.96. In the case of `O=C(NCc1cn2cc(CNc3ccc(F)cn3)ccc2n1)c1cc(=O)n2ccccc2n1` [Compound 196, N-[(6-{[(5-fluoropyridin-2-yl)amino]methyl}imidazo[1,2-a]pyridin-2-yl)methyl]-4-oxo-4H-pyrido[1,2-a] pyrimidine-2-carboxamide], the pIC50 was 6.22. For `O=C(NCc1cn2cc(CNC[C@H]3CCCO3)ccc2n1)c1cc(=O)n2ccccc2n1` [Compound 118, 4-oxo-N-({6-[({[(2R)-oxolan-2-yl]methyl}amino)methyl]imidazo[1,2-a]pyridin-2-yl}methyl)-4H-pyrido[1,2-a]pyrimidine-2-carboxamide], the pIC50 was 7.06. `O=C(NCc1cn2cc(CNC3CCC(F)(F)CC3)ccc2n1)c1cc(=O)n2ccccc2n1` [Compound 115, N-[(6-{[(4,4-difluoro-cyclohexyl)amino]methyl}imidazo [1,2-a]pyridin-2-yl)methyl]-4-oxo-4H-pyrido [1,2-a]pyrimidine-2-carboxamide] gave a pIC50 of 7.36. Work on `CC(C)CNCc1ccc2nc(CNC(=O)c3cc(=O)n4ccccc4n3)cn2c1` [Compound 151, N-[(6-{[(2-methylpropyl)amino]methyl}imidazo[1,2-a]pyridin-2-yl)methyl]-4-oxo-4H-pyrido[1,2-a] pyrimidine-2-carboxamide] yielded a pIC50 of 7.79. `O=C(NCc1cn2cc(CNCCCC(F)(F)F)ccc2n1)c1cc(=O)n2ccccc2n1` [Compound 81, 4-oxo-N-[(6-{[(4,4,4-trifluorobutyl)amino]methyl}imidazo[1,2-a]pyridin-2-yl)methyl]-4H-pyrido[1,2-a]pyrimidine-2-carboxamide] gave a pIC50 of 7.56. Molecule `O=C(NCc1cn2cc(CNCCF)ccc2n1)c1cc(=O)n2ccccc2n1` [Compound 128, N-[(6-{[(2-fluoroethyl)amino]methyl}imidazo [1,2-a]pyridin-2-yl)methyl]-4-oxo-4H-pyrido[1,2-a] pyrimidine-2-carboxamide] has a pIC50 of 6.48.

Same assay, conditions: 5 nM METTL3/14, 0.2 μM RNA substrate, 0.5 μM SAM; lower limit of the assay IC50=5 nM; Compounds 266-351; read-out: METTL3_14 RFMS IC50
`CC(C)(C)CNCc1ccc2nc(Cn3cc(-c4cc(Cl)cc5[nH]ncc45)nn3)cn2c1` [Example 304, N-[[2-[[4-(6-chloro-1H-indazol-4-yl)triazol-1-yl]methyl]imidazo[1,2-a]pyridin-6-yl]methyl]-2,2-dimethyl-propan-1-amine] was tested, and the pIC50 was 8.21. With `Cc1ccc2nc(C(C)(O)c3cnc(-c4cccc5[nH]ncc45)s3)cn2c1` (centres unmarked) [Example 335, 1-[2-(1H-indazol-4-yl)thiazol-5-yl]-1-(6-methylimidazo[1,2-a]pyridin-2-yl)ethanol] the pIC50 was 5.14. Work on `c1cc(-c2ncn(Cc3cn4cc(CNCC5CCC5)ccc4n3)n2)c2cn[nH]c2c1` [Example 341, N-(cyclobutylmethyl)-1-[2-[[3-(1H-indazol-4-yl)-1,2,4-triazol-1-yl]methyl]imidazo[1,2-a]pyridin-6-yl]methanamine] yielded a pIC50 of 7.19. `CC(C)(C#N)CNCc1ccc2nc(CNC(=O)c3cc(=O)n4ccccc4n3)cn2c1` [Compound 275, N-[[6-[[(2-cyano-2-methyl-propyl)amino]methyl]imidazo[1,2-a]pyridin-2-yl]methyl]-4-oxo-pyrido[1,2-a]pyrimidine-2-carboxamide] showed a pIC50 of 5.91.

Same assay, conditions: primary enzyme screen, inhibition of RNA methyltransferase activity; lower limit of the assay is IC50=5 nM; read-out: IC50
For `Cc1ccc2nc(CNC(=O)c3cc(=O)n4ccccc4n3)cn2c1` [Compound 15, N-({6-methylimidazo[1,2-a]pyridin-2-yl}methyl)-4-oxo-4H-pyrido[1,2-a]pyrimidine-2-carboxamide], the pIC50 was 6.28.

Same assay, conditions: read-out: METTL3_14 RFMS IC50
Molecule `O=C(NCc1cn2cc(CNCc3ccc(Cl)cc3)ccc2n1)c1cc(=O)n2ccccc2n1` [Compound 73, N-{[6-({[(4-chlorophenyl)methyl]amino}methyl)imidazo [1,2-a]pyridin-2-yl]methyl}-4-oxo-4H-pyrido [1,2-a]pyrimidine-2-carboxamide] has a pIC50 of 7.19.
